Key:
[1] = rats given a single injection; cited from earlier work
[2] = test system: P. berghei; experiment: In vivo efficacy against P. berghei in rats, single oral dose; design: species or system rat; details: single oral dose (Chloroquine 20 mg/kg, Atrazine 100 mg/kg) 4 h after inoculation
Method: Rats weighing 60-70 gms were inoculated with P. berghei infected rat red blood cells. […] Blood was obtained 4 days and 11 days later and parasitemia assessed using light microscopy of blood smears. The percent parasitemia (i.e., the presence of parasites in the blood) was then determined for each group and the data are summarized in the table below: […]

[3] = test system: Toxoplasma gondii; experiment: In vitro anti-Toxoplasma test in human foreskin fibroblasts; assay type: cell-based; details: 24 hrs after treatment
Method: Human foreskin fibroblasts are grown to confluency in 12 well plates. Next, Toxoplasma gondii is added to the plates. The resultant cultures are treated with the test compound 24 hrs later. […]

[4] = test system: wild type Plasmodium falciparum; experiment: In vitro red blood cell culture infected with wild type Plasmodium falciparum, percent RBCs infected; assay type: cell-based; details: 0.006 μM to 0.4 μM
[5] = test system: wild type yeast; experiment: Yeast assay for antifolate activity, wild type yeast; assay type: cell-based, Saccharomyces cerevisiae; details: 48 hours of treatment
[6] = test system: chloroquine resistant P. falciparum (Clq res); experiment: In vitro RBC culture, chloroquine resistant P. falciparum; assay type: cell-based, Plasmodium falciparum
[7] = test system: malarial DHFR; experiment: DHFR enzyme assay, cultures of P. falciparum; assay type: biochemical
Method: (§1) The ability of atrazine to inhibit dihydrofolate reductase (DHFR) is also tested using homogenates of calf liver, rat liver and cultures of P. falciparum. Atrazine's ability to inhibit mammalian DHFR (i.e., calf DHFR and rat DHFR) as well as malarial DHFR is determined using standard enzyme assays and the Michaelis-Menton analysis. The Michaelis-Menton hypothesis states that a complex is formed between an enzyme and its substrate and that the complex then dissociates to yield free enzyme and the reaction products, with the rate of dissociation determining the overall rate of substrate-product conversion. For a more complete review of the Michaelis constant, see Benet et al., 1996, Pharmacokinetics, Chapter 1:3-27, In Goodman & Gilman's The Pharmacological Basis of Therapeutics, Ninth Edition, McGraw-Hill; and Ross, 1996, Pharmacodynamics, Chapter 2:29-41, Id.

[8] = test system: multi-drug resistant P. falciparum (MDR); experiment: In vitro RBC culture, multi-drug resistant P. falciparum; assay type: cell-based, Plasmodium falciparum
Method: (§2) Briefly, a red blood cell suspension at a malarial (wild type Plasmodium falciparum) infection rate of approximately 1% was added to each well of a 96 well micro titer plate. The test compound was added to the cultures at final concentrations of 2.0, 0.2 or 0.02 μM. and incubated in an environment of 5% CO2, 5% O2 and 90% N2 at 37° C. Every 24 hrs the dish was removed, 100 μl of spent medium removed and 100 μl of fresh, compound containing-medium was added back to each well. This procedure was repeated daily.
(§3) At 48 hrs and again at 96 hrs, blood smears were made from each well and 500 Red Blood Cells (RBCs) were counted and inspected for malarial infection. The percent infection rate was then determined for each experimental condition tested.
(§4) Malaria parasite (P. falciparum) was grown in culture as described previously. At 48 hours and 96 hours of treatment, red blood cells were taken from culture and the percent red blood cells infected with the parasite was determined by microscopic examination.

[9] = test system: yeast transfected but not sensitive to antifolate antimalarials (folate insensitive); experiment: Yeast assay for antifolate activity, folate insensitive yeast; assay type: cell-based, Saccharomyces cerevisiae; details: 48 hours of treatment
Method: (§5) We have established a in vitro yeast assay model for determining sensitivity to antifolate anti-malarials.
(§6) Saccharomyces cerevisiae was grown in culture and after 48 hours of treatment as described below the growth of the yeast was determined. Control (i.e., yeast grown with no treatment) is considered to be 100% growth. Drug treatment was then related to the controls as a percent of control growth. S. cerevisiae types tested included wild type yeast, yeast made sensitive to antifolate antimalarials by transfecting yeast with malarial dihydrofolate reductase (folate sensitive or folate sen), yeast transfected but not sensitive to antifolate antimalarials (folate insensitive or folate insen).

[10] = test system: P. falciparum; experiment: Isobologram analysis of chloroquine and atrazine in vitro against P. falciparum; assay type: cell-based, Plasmodium falciparum; details: each drug alone at its ID50, or combinations of the stated fractions of each ID50
Method: Drugs can interact in additive, antagonistic or synergistic manner. See Berenbaum, J. Infect. Dis., 137:122-130, 1978. The isobologram assay permits determination of the type of interaction that occurs between drugs of interest. The ID50, or […], for both drugs was calculated.
Next, the drugs were tested in vitro at the ID50 for each drug alone and various combinations of drugs as described below:
These combinations of drugs were tested in vitro against P. falciparum and the data analyzed.

[11] = test system: yeast transfected with malarial dihydrofolate reductase (folate sensitive); experiment: Yeast assay for antifolate activity, folate sensitive yeast; assay type: cell-based, Saccharomyces cerevisiae; details: 48 hours of treatment
Method: as §5, §6

[12] = test system: wild type Plasmodium falciparum; experiment: In vitro red blood cell culture infected with wild type Plasmodium falciparum, percent RBCs infected; assay type: cell-based
Method: The in vitro method used to test the anti-malarial effectiveness of various s-triazines was adapted from Trager, 1994, Methods in Cell Biology Vol 45:7-26.
as §2, §3, §4
The data in Table 2 represent percent red blood cell (RBC) infection rate at 48 hrs of treatment with the antimalarial test compound. Control cultures were 35% RBC infected.

[13] = test system: antifolate-resistant P. falciparum; experiment: In vitro RBC culture, antifolate-resistant P. falciparum; assay type: cell-based, Plasmodium falciparum; details: Example 4, 48 hrs or 96 hrs after treatment
Method: as §2, §3
The procedure set forth in Example 1 is utilized for testing the effectiveness of triazine and atrazine against antifolate-resistant P. falciparum.

[14] = test system: wild type rodent malaria (Plasmodium berghi); experiment: In vitro evaluation against wild type rodent malaria; assay type: cell-based; details: Experiment 5, 48 hrs or 96 hrs after treatment
Method: as §2, §3
The procedure set forth in Example 1 is utilized for testing compounds against wild type rodent malaria (Plasmodium berghi).

[15] = molecular target: T1, rat DHFR (Rattus norvegicus, UniProt Q920D2); experiment: DHFR enzyme assay, rat liver homogenate; assay type: biochemical
T1 construct: tested using homogenates of calf liver, rat liver and cultures of P. falciparum; from tissue; host or cells: rat liver homogenate
T1 sequence (Q920D2 1-187): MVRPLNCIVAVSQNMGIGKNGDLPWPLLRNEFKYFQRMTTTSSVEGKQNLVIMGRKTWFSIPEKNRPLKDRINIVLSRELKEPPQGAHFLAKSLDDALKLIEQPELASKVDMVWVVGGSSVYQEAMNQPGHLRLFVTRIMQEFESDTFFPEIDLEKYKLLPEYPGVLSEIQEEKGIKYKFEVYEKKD
Method: as §1

CCNc1nc(Cl)nc(NC(C)C)n1 [atrazine, 2-chloro-4-ethylamino-6-isopropylamino-s-triazine]
LD50 [1]: ~3000 mg/kg | Parasitemia Day 4 ([2]; ethanol control 24%): 6.0% | Parasitemia Day 11 ([2]; ethanol control 42%): 10.5% | percentage of fibroblast cells infected with T. gondii [3]: relatively low percentage of the cells being infected | effectiveness compared with chloroquine (FIG. 5) [4]: as effective and potent as chloroquine | yeast growth (FIG. 7) [5]: Neither chloroquine (Clq) nor atrazine affected growth | percentage of RBCs infected with chloroquine-resistant P. falciparum ([6]; Example 2, 48 hrs or 96 hrs after treatment): relatively low percentage of the RBCs being infected | effectiveness against resistant parasite (FIGS. 8, 9) ([6]; chloroquine resistant, 48 and 96 hours): effective against several classic forms of resistance | Red Blood Cell Infection Rate ([6]; chloroquine-resistant, 96 hrs of treatment, 0.02 μM, control 28): 4% | inhibition of DHFR [7]: does not inhibit DHFR | effectiveness against resistant parasite (FIGS. 8, 9) ([8]; multi-drug resistant, 48 and 96 hours): effective against several classic forms of resistance | Red Blood Cell Infection Rate ([8]; multidrug-resistant, 96 hrs of treatment, 0.02 μM, control 25): 3% | yeast growth (FIG. 7) [9]: Neither chloroquine (Clq) nor atrazine affected growth | Percent Growth Inhibition [10]: 58% | yeast growth (FIG. 7) [11]: Neither chloroquine (Clq) nor atrazine affected growth | Red Blood Cell Infection Rate ([12]; 48 hrs of treatment, 0.02 μM, control 35%): 3% | Red Blood Cell Infection Rate ([12]; 48 hrs of treatment, 0.2 μM, control 35%): 0% | Red Blood Cell Infection Rate ([12]; 48 hrs of treatment, 2.0 μM, control 35%): 0% | effectiveness compared with chloroquine (text to Table 2) ([12]; 48 hrs of treatment, 2.0-0.02 μM): substantially similar in effectiveness as chloroquine | percentage of RBCs infected with P. falciparum (FIGS. 1-4) ([12]; low concentrations, 48 hrs or 96 hrs after treatment): relatively low percentage of the RBCs being infected | Red Blood Cell Infection Rate ([12]; wild type, 96 hrs of treatment, 0.02 μM, control 18): 3% | percentage of RBCs infected with antifolate-resistant P. falciparum [13]: relatively low percentage of the RBCs being infected | percentage of RBCs infected with P. berghi [14]: relatively low percentage of the RBCs being infected | inhibition of DHFR [15]: does not inhibit DHFR
